Active and inactive are the calls of the source.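 The calls were made as follows: active = AC50 no more than ten times the top concentration tested; inconclusive = flat fit with inhibition between 30% and 70%, or unusable fit; inactive = AC50 beyond ten times the top concentration.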
biological target: Caspase recruitment domain-containing protein 9 (Homo sapiens) + B-cell lymphoma/leukemia 10 (Homo sapiens) (UniProt Q9H257+O95999); assay: disruptors of CARD9-BCL10 binding, dose response, selectivity assay for CARD9-TRIM62 disruptor project, cell lysate, HEK293FT lysates, Luminex bead ELISA (AID 1259340); details: at 80 µM (top of the series)
Sequence (O95999 whole entry, looked up, the tested form may be a part): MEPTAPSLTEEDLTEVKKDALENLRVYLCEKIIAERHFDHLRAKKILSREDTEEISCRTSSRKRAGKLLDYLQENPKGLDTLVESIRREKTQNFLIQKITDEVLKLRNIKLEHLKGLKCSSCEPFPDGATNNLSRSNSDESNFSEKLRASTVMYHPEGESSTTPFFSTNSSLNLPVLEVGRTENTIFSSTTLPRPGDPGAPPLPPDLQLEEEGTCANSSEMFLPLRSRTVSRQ
Sequence (Q9H257 whole entry, looked up, the tested form may be a part): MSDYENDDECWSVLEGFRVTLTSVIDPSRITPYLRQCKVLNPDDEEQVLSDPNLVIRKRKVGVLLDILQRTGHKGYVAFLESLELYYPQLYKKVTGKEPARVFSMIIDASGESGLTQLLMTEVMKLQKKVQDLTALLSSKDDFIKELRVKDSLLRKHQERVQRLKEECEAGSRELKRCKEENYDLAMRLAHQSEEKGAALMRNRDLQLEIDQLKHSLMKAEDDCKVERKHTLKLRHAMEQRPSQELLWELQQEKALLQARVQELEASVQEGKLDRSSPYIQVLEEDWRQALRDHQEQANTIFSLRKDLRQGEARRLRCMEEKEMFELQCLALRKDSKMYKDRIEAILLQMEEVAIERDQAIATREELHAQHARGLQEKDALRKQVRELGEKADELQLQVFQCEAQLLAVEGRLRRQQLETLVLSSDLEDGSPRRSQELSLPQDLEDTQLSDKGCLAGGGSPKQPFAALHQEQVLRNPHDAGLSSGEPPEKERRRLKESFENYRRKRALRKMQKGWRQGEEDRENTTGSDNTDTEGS

Structure (SMILES) | activity change, negative = inhibition
Cc1cnc(C)c(N2CCN(C(=O)[C@H]3CC[C@@H](N)C3)CC2)n1 | inactive
CC(C(=O)N1CCCC1)N1CCN(c2ccccc2O)CC1 (centres undefined) | inactive
Cc1ccc(N2C(=O)c3ccccc3C2C(=O)c2ccc(O)cc2O)cc1 (centres undefined) | inactive
O=C(O)COc1ccc(-n2cccc2)cc1 | inactive
CC(C)(C)c1ccc(-c2nc(C#N)c(NCc3ccncc3)o2)cc1 | inactive
O=C(Nc1nnc(-c2ccco2)s1)c1ccccc1 | inactive
NC(=O)C1(N2CCCCC2)CCN(c2ncc(NC(=O)c3ccccc3)cc2C(=O)O)CC1 | inactive
NC(=O)C1(N2CCCCC2)CCN(c2ncc(NC(=O)c3ccc(Cl)cc3)cc2C(=O)O)CC1 | inactive
CCCc1cc(C(=O)N2CC[C@H]3CNC[C@H]32)n(C)n1 | inactive
Cc1ccc(C(=O)Nc2ccc(N3CCC(C(N)=O)(N4CCCCC4)CC3)c(C(=O)O)c2)cc1 | inactive
O=C(Cc1ccc(S(=O)(=O)N2CCOCC2)s1)Nc1nc2c(s1)CCCC2 | inactive
NC(=O)C1(N2CCCCC2)CCN(c2ccc(NC(=O)c3ccccc3F)cc2C(=O)O)CC1 | inactive
Cc1cncc(-c2ccc(S(N)(=O)=O)cc2F)c1 | inactive
CC1(C)Cc2ccccc2-c2nc(-c3ccccc3)oc(=O)c21 | inactive
COCCC(=O)N1CCCC2(CCN(CCN3CCCC3)C2=O)C1 (centres undefined) | inactive
Cc1ccc(N2NC(c3ccc(Br)cc3)=CCC2=O)cc1 | inactive
CCCN1CCCn2nc(CNC(=O)[C@@H](N)Cc3ccc(O)cc3)cc2C1 | inactive
C[C@H](CO)N1C[C@H](C)[C@@H](CN(C)CC2CCCCC2)OCCCC[C@H](C)Oc2ccc(NS(C)(=O)=O)cc2C1=O | inactive
COC[C@]1(O)CCN(C(=O)CCN(C)S(C)(=O)=O)CC1(C)C | inactive
CC(C)C(CC(=O)NCc1ccco1)c1ccco1 (centres undefined) | inactive
OCc1ccc(O)c2ncccc12 | inactive
O=c1/c(=C/c2ccco2)sc2nc3ccccc3n12 | inactive
c1cn(CCc2noc(C3CCCC3)n2)c(-c2cc3n(n2)CCCNC3)n1 | inactive
N#CNc1nc(O)cc(=O)[nH]1 | inactive
NC(=O)C1(N2CCCCC2)CCN(c2ncc(NC(=O)c3cccs3)cc2C(=O)O)CC1 | inactive

Structure (SMILES) | activity change, negative = inhibition
O=C(Nc1ccc(OCC(=O)N2CCOCC2)cc1)c1cncc(Br)c1 | inactive
COc1ccc(S(=O)(=O)c2ccccc2)cc1NS(=O)(=O)c1cccc(C(=O)O)c1 | inactive
O=S(=O)(Nc1nc2ccc(S(=O)(=O)N3CCCCC3)cc2s1)c1ccccc1 | inactive
COCC(=O)N1CCCC2(CCN(CCN3CCCC3)C2=O)C1 (centres undefined) | inactive
CC1=CCC(C(=O)O)C(C(=O)NC2CCCCC2)C1 (centres undefined) | inactive
O=C(COC(=O)c1ccc(S(=O)(=O)NCc2ccco2)cc1)Nc1ccc(Cl)cn1 | inactive
CC1CCN(c2nc(-c3ccco3)c3c(c2C#N)CC(C)(C)OC3)CC1 | inactive
O=C(Nc1nc(-c2ccco2)c(-c2ccco2)s1)c1ccco1 | inactive
O=C(NCCc1ccccc1)c1cc2cccnc2n(Cc2ccccc2)c1=O | inactive
NC(=O)C1(N2CCCCC2)CCN(c2ccc(NC(=O)c3cccc(Cl)c3)cc2C(=O)O)CC1 | inactive
CCc1nccn1CCC(=O)N1C[C@H](CO)C[C@H](CN2CCCC2)C1 | inactive
CCN1CCOC(=O)C1CC(=O)Nc1cccc(C)c1 (centres undefined) | inactive
Cc1c(C(=O)OCC2CCCO2)[nH]c2c1C(=O)CC(c1ccco1)C2 (centres undefined) | inactive
O=C(NCCc1ccco1)c1ccc(OCc2cn3ccccc3n2)cc1 | inactive
Cc1ccc(S(=O)(=O)Cc2ccc(C(=O)N3CCC4(CC3)OCCO4)o2)cc1 | inactive
CCn1ccnc1C1CCN(C(=O)CCn2c(C)nc3ccccc32)CC1 | inactive
CCCN1CCCn2nc(CNC(=O)[C@H]3CC[C@@H](N)C3)cc2C1 | inactive
Cc1ccc(-c2nn(-c3ccccc3)cc2CN(Cc2ccccc2)C(=O)CCC(=O)O)o1 | inactive
O=C(Cn1c(=O)cc(C(=O)N2CCc3ccccc3C2)c2ccccc21)NCc1ccc2c(c1)OCO2 | inactive
Cc1cccc(Nc2nc(C(=O)Nc3cc(F)ccc3F)nc3ccccc23)c1 | inactive
O=S(=O)(Nc1nccs1)c1ccc(-n2cccc2)cc1 | inactive
Cc1ccc(C(=O)Nc2cnc(N3CCC(C(N)=O)(N4CCCCC4)CC3)c(C(=O)O)c2)cc1 | inactive
CCOC(=O)C1CCN(C(=O)CN(Cc2ccccc2)S(C)(=O)=O)CC1 | inactive
CCc1nc(OCc2ccco2)c2sc3nc4c(cc3c2n1)COC(C)(C)C4 | inactive

— PubChem BioAssay AID1259340 (Broad Institute, 2017)
